# Assay results taken from US20040048807A1, “Angiogenesis inhibitors” (priority 2000, published 2004).
# How the values were obtained:
# KB/TP cells = test: TP-dependent liver metastasis after injection of tumor cells into the spleen; assay type: in vivo, mouse; conditions: for number of metastatic nodules in liver: KB/TP cell into spleen, 4 weeks, Balb/nude mouse
# Protocol: A Balb/nude mouse of 7-8 weeks age is anesthetized by Nembutal (pentobarbital) and abdomen is slightly incised so as to observe the spleen. 1×10^5 numbers of KB/CV cells or KB/TP cells used in Example 2 is injected into the spleen. After one minute, the spleen is excised and the incised position is sutured. 2-deoxy-L-ribose (100 mg/kg/day) is injected to subcutaneous by two times (morning and evening) every day or one time every other day. To the control group, same amount of physiological saline is injected. After 4 weeks from therapy starting, abdomen is incised, the liver is excised and the number of metastatic nodules are counted. […] The number of metastatic lesions of KB/TP cell is obviously larger than those of KB/CV cell.
# [1] = test system: KB cells overpressing TP (KB/TP); test: Millipore chamber angiogenesis assay, chamber with KB cells implanted dorsal subcutaneously in mouse; assay type: in vivo; conditions: for number of angiogenesis (longer than 3 mm, zig-zag pattern): 100 mg/kg/day into abdominal cavity every 12 hours for 4 days, male BALB/c mouse
# Protocol: KB cells overpressing TP (KB/TP) prepared by transfection of […] into KB cells and TP-negative KB cells (KB/CV) prepared by transfection of an empty vector are rinsed by phosphate buffered saline PBS for two times, each 1×10^5 numbers are contained into a Millipore chamber (10 mm diameter, 2 mm thickness, pore size of filter is 0.22 μm) and inserted into dorsal subcutaneous of a male BALB/c mouse of 6-7 weeks age. 2-deoxy-L-ribose (100 mg/kg/day) is administered into abdominal cavity every 12 hours for 4 days. After 4 days from the implanting, the Millipore chamber is removed, and numbers of angiogenesis (longer than 3 mm and showing zig-zag pattern) were counted using a microscope. Results by microscope observation are shown in FIG. 2 (picture A, B, C and D). The number of angiogenesis by KB/TP cell (B) is 4.33 and that of KB/CV cell (B) is 2.67. When 2-deoxy-L-ribose is administereded, that of KB/TP cell (D) becomes to 2.83 and that of […] becomes to 2.83.
# [2] = test system: BAE cell (endothelial cells of bovine aorta); test: Chemotaxis of BAE cells (collagen-coated chamber, MTT method); assay type: cell-based; conditions: 2DDR 10 μM + 2DLR 100 μM versus 2DDR 10 μM alone; DMEM + 1% FCS; incubation 4.5 hours
# Protocol: The experimental results of the effect of 2-deoxy-L-ribose on the chemotaxis of BAE cell (endothelial cells of bovine aorta) are shown in FIG. 1. The numbers of inoculated cell 400000, incubation 4.5 hours Chamber coated by type 1 collagen: MTT method From left side, 1: DMEM+1% FCS (fetal calf serum) 2: 1+bFGF (angiogenesis factor) 10 ng/mL, 3: 1+2DDR (2-deoxy-D-ribose) 1 μM 4: 1+2DDR 10 μM 5: 1+2DDR 100 μM 6: 1+2DDR 10 μM+2DLR100 μM The effect of 2DLR ([…]) is obvious from the comparison between the date 4 and 6.
structure (smiles),measurement,setting,value
O=CC[C@@H](O)[C@@H](O)CO [2-deoxy-L-ribose],suppression of TP-dependent metastasis of tumor from spleen to liver,"KB/TP cells; 100 mg/kg/day subcutaneous, overall conclusion",perfectly suppressing the TP-dependent metastasis of tumor from spleen to liver
same,number of metastatic nodules in liver,KB/TP cells; 100 mg/kg/day subcutaneous one time every other day,smaller than the number of metastatic nodules of KB/CV cell
same,number of metastatic nodules in liver,KB/TP cells; 100 mg/kg/day subcutaneous two times (morning and evening) every day (LR),smaller than the number of metastatic nodules of KB/CV cell
same,suppression of the angiogenesis by TP,"[1]; 100 mg/kg/day into abdominal cavity for 4 days, overall conclusion",perfectly supressing the angiogenesis by TP
same,"number of angiogenesis (longer than 3 mm, zig-zag pattern)",[1]; KB/TP cell (D),2.83
same,"number of angiogenesis (longer than 3 mm, zig-zag pattern)",[1]; KB/TP cell (E) as printed,2.83
same,effect on the chemotaxis of BAE cell,[2],obvious
